# Source: ChEMBL document CHEMBL1201861, “Genomics of Drug Sensitity in Cancer screening data, Wellcome Trust Sanger Institute”
# Legend:
# SUP-T1 = experiment: cells; format: functional, cell-based, Homo sapiens; conditions: Homo sapiens, SUP-T1;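 further: growth inhibition of human SUP-T1 cells, read out as cell viability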
# Description: SANGER: Inhibition of human SUP-T1 cell growth in a cell viability assay.
# HMV-2 cell line = experiment: cells; format: functional, cell-based; conditions: Homo sapiens;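 further: growth inhibition of HMV-II cells, read out with a cell viability assay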
# Description: SANGER: Inhibition of human HMV-II cell growth in a cell viability assay.
# KYSE-410 = experiment: cells; format: functional, cell-based; conditions: Homo sapiens;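 further: growth inhibition of KYSE-410 cells, measured through a cell viability readout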
# Description: SANGER: Inhibition of human KYSE-410 cell growth in a cell viability assay.
# HT-29 = experiment: cells; format: functional, cell-based; conditions: Homo sapiens;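 further: growth inhibition of human HT-29 cells, read out by a cell viability assay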
# Description: SANGER: Inhibition of human HT-29 cell growth in a cell viability assay.
# KYSE-70 cell line = experiment: cells; format: functional, cell-based; conditions: Homo sapiens;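 further: cell viability assay read-out, with IC50 expressing suppression of KYSE-70 cell growth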
# Description: SANGER: Inhibition of human KYSE-70 cell growth in a cell viability assay.
# NCI-H2087 = experiment: cells; format: functional, cell-based; conditions: Homo sapiens;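 further: growth inhibition determined with a cell viability readout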
# Description: SANGER: Inhibition of human NCI-H2087 cell growth in a cell viability assay.
# NCI-H2081 = experiment: cells; format: functional, cell-based, Homo sapiens; conditions: Homo sapiens, NCI-H2081;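 further: growth inhibition of human NCI-H2081 cells, read out with a cell viability assay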
# Description: SANGER: Inhibition of human NCI-H2081 cell growth in a cell viability assay.
# NALM-6 = experiment: cells; format: functional, cell-based, Homo sapiens; conditions: Homo sapiens, NALM-6;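 further: growth inhibition of NALM-6 cells, read out with a cell viability assay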
# Description: SANGER: Inhibition of human NALM-6 cell growth in a cell viability assay.
# EFO-21 = experiment: cells; format: functional, cell-based; conditions: Homo sapiens;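 further: growth inhibition of EFO-21 cells measured with a viability assay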
# Description: SANGER: Inhibition of human EFO-21 cell growth in a cell viability assay.
# CAKI-1 = experiment: cells; format: functional, cell-based; conditions: Homo sapiens;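 further: growth inhibition of CAKI-1 cells, measured by a cell viability assay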
# Description: SANGER: Inhibition of human CAKI-1 cell growth in a cell viability assay.
# EW-24 = experiment: cells; format: functional, cell-based, Homo sapiens; conditions: Homo sapiens, EW-24;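 further: human EW-24 cancer cell line, growth inhibition read out via a cell viability assay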
# Description: SANGER: Inhibition of human EW-24 cell growth in a cell viability assay.
# VM-CUB-1 = experiment: cells; format: functional, cell-based; conditions: Homo sapiens;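 further: cell viability assay measuring growth inhibition of the human VM-CUB-1 cell line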
# Description: SANGER: Inhibition of human VM-CUB-1 cell growth in a cell viability assay.
# S-117 = experiment: cells; format: functional, cell-based; conditions: Homo sapiens
# Description: SANGER: Inhibition of human S-117 cell growth in a cell viability assay.
# HSC-4 = experiment: cells; format: functional, cell-based; conditions: Homo sapiens;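 further: growth inhibition of human HSC-4 cells, read out with a cell viability assay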
# Description: SANGER: Inhibition of human HSC-4 cell growth in a cell viability assay.
# D-392MG = experiment: cells; format: functional, cell-based; conditions: Homo sapiens
# IM-9 = experiment: SANGER: Inhibition of human IM-9 cell growth in a cell viability assay.; format: functional, cell-based; conditions: Homo sapiens, IM-9
# UMC-11 = experiment: cells; format: functional, cell-based; conditions: Homo sapiens;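 further: growth inhibition of UMC-11 cells, read out with a cell viability assay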
# Description: SANGER: Inhibition of human UMC-11 cell growth in a cell viability assay.
# G-402 = experiment: cells; format: functional, cell-based; conditions: Homo sapiens
# Description: SANGER: Inhibition of human G-402 cell growth in a cell viability assay.
# MC-CAR = experiment: cells; format: functional, cell-based, Homo sapiens; conditions: Homo sapiens, MC-CAR;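 further: growth inhibition of the human MC-CAR cell line, read out by a cell viability assay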
# Description: SANGER: Inhibition of human MC-CAR cell growth in a cell viability assay.
# NCCIT = experiment: SANGER: Inhibition of human NCCIT cell growth in a cell viability assay.; format: functional, cell-based; conditions: Homo sapiens, NCCIT
# HuO-3N1 = experiment: cells; format: functional, cell-based; conditions: Homo sapiens;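 further: cell viability readout used to measure how strongly compounds suppress proliferation of human HuO-3N1 cells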
# Description: SANGER: Inhibition of human HuO-3N1 cell growth in a cell viability assay.
# SCC-25 = experiment: cells; format: functional, cell-based; conditions: Homo sapiens;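 further: growth inhibition of SCC-25 cells, measured with a cell viability assay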
# Description: SANGER: Inhibition of human SCC-25 cell growth in a cell viability assay.
# HCT-116 = experiment: cells; format: functional, cell-based; conditions: Homo sapiens
# Description: SANGER: Inhibition of human HCT-116 cell growth in a cell viability assay.
# RPMI-6666 = experiment: cells; format: functional, cell-based, Homo sapiens; conditions: Homo sapiens, RPMI-6666
# Description: SANGER: Inhibition of human RPMI-6666 cell growth in a cell viability assay.
# EFO-27 = experiment: cells; format: functional, cell-based; conditions: Homo sapiens;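 further: growth inhibition of EFO-27 cells, read out with a cell viability assay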
# Description: SANGER: Inhibition of human EFO-27 cell growth in a cell viability assay.
# SNU-387 = experiment: cells; format: functional, cell-based; conditions: Homo sapiens
# Description: SANGER: Inhibition of human SNU-387 cell growth in a cell viability assay.
# NCI-H292 = experiment: cells; format: functional, cell-based; conditions: Homo sapiens;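 further: growth inhibition of NCI-H292 cells, read out with a cell viability assay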
# Description: SANGER: Inhibition of human NCI-H292 cell growth in a cell viability assay.
# DoTc2-4510 = experiment: cells; format: functional, cell-based; conditions: Homo sapiens
# NCI-H2196 = experiment: cells; format: functional, cell-based, Homo sapiens; conditions: Homo sapiens, NCI-H2196; read-out: IC50;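 further: cell viability assay used as the readout of growth inhibition in NCI-H2196 cells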
# Description: SANGER: Inhibition of human NCI-H2196 cell growth in a cell viability assay.
# HuCCT-1 = experiment: cells; format: functional, cell-based, HuCCT1; conditions: Homo sapiens;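 further: growth inhibition of HuCCT-1 cells, read out by a cell viability assay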
# Description: SANGER: Inhibition of human HuCCT1 cell growth in a cell viability assay.
# CHP-212 = experiment: cells; format: functional, cell-based; conditions: Homo sapiens
# Description: SANGER: Inhibition of human CHP-212 cell growth in a cell viability assay.
# MDA-MB-231 = experiment: cells; format: functional, cell-based; conditions: Homo sapiens
# Description: SANGER: Inhibition of human MDA-MB-231 cell growth in a cell viability assay.
# DMS-273 = experiment: cells; format: functional, cell-based; conditions: Homo sapiens
# Description: SANGER: Inhibition of human DMS-273 cell growth in a cell viability assay.
# GCT = experiment: cells; format: functional, cell-based; conditions: Homo sapiens;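 further: GCT cell line proliferation inhibition, read out with a cell viability assay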
# Description: SANGER: Inhibition of human GCT cell growth in a cell viability assay.
# SW48 = experiment: cells; format: functional, cell-based; conditions: Homo sapiens;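 further: growth inhibition of SW48 cells, read out with a cell viability assay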
# Description: SANGER: Inhibition of human SW48 cell growth in a cell viability assay.
# NCI-H2342 = experiment: cells; format: functional, cell-based; conditions: Homo sapiens;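 further: growth inhibition of the cancer cell line, determined with a cell viability assay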
# Description: SANGER: Inhibition of human NCI-H2342 cell growth in a cell viability assay.
# BHT-101 = experiment: cells; format: functional, cell-based; conditions: Homo sapiens
# Description: SANGER: Inhibition of human BHT-101 cell growth in a cell viability assay.
# SW780 = experiment: cells; format: functional, cell-based; conditions: Homo sapiens;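 further: growth inhibition of the cells, read out with a cell viability assay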
# Description: SANGER: Inhibition of human SW780 cell growth in a cell viability assay.
# SW1990 = experiment: cells; format: functional, cell-based; conditions: Homo sapiens
# Description: SANGER: Inhibition of human SW1990 cell growth in a cell viability assay.
# NCI-H2405 = experiment: cells; format: functional, cell-based; conditions: Homo sapiens;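 further: growth inhibition of the human cell line, read out with a cell viability assay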
# Description: SANGER: Inhibition of human NCI-H2405 cell growth in a cell viability assay.
# CPC-N = experiment: cells; format: functional, cell-based, Homo sapiens; conditions: Homo sapiens, CPC-N;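 further: growth inhibition of CPC-N cells, with a cell viability assay as the readout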
# Description: SANGER: Inhibition of human CPC-N cell growth in a cell viability assay.
# TUR = experiment: cells; format: functional, cell-based, Homo sapiens; conditions: Homo sapiens, TUR;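 further: growth inhibition of human TUR cells, read out with a cell viability assay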
# Description: SANGER: Inhibition of human TUR cell growth in a cell viability assay.
# NCI-H2030 = experiment: cells; format: functional, cell-based; conditions: Homo sapiens;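 further: growth inhibition of human NCI-H2030 cells, read out by a cell viability assay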
# Description: SANGER: Inhibition of human NCI-H2030 cell growth in a cell viability assay.
# TALL-1 = experiment: cells; format: functional, cell-based, Homo sapiens; conditions: Homo sapiens, TALL-1;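 further: growth inhibition of cultured human TALL-1 cells, read out by a cell viability assay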
# Description: SANGER: Inhibition of human TALL-1 cell growth in a cell viability assay.
# RD = experiment: cells; format: functional, cell-based; conditions: Homo sapiens
# Description: SANGER: Inhibition of human RD cell growth in a cell viability assay.
# T98G = experiment: cells; format: functional, cell-based; conditions: Homo sapiens;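 further: growth inhibition of T98G cells, read out by a cell viability assay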
# Description: SANGER: Inhibition of human T98G cell growth in a cell viability assay.
# A-427 = experiment: cells; format: functional, cell-based; conditions: Homo sapiens;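 further: growth inhibition of human A-427 cells, read out by a cell viability assay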
# Description: SANGER: Inhibition of human A427 cell growth in a cell viability assay.
# P31-FUJ = experiment: cells; format: functional, cell-based, Homo sapiens; conditions: Homo sapiens, P31-FUJ;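 further: growth inhibition of P31-FUJ cells, read out with a viability assay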
# Description: SANGER: Inhibition of human P31-FUJ cell growth in a cell viability assay.
# NUGC-3 = experiment: cells; format: functional, cell-based; conditions: Homo sapiens;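 further: growth inhibition of human NUGC-3 cells, read out with a cell viability assay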
# Description: SANGER: Inhibition of human NUGC-3 cell growth in a cell viability assay.
# COR-L105 = experiment: cells; format: functional, cell-based; conditions: Homo sapiens
# Description: SANGER: Inhibition of human COR-L105 cell growth in a cell viability assay.
# NCI-H748 = experiment: cells; format: functional, cell-based, Homo sapiens; conditions: Homo sapiens, NCI-H748;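 further: growth inhibition of NCI-H748 cells, measured by a cell viability assay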
# Description: SANGER: Inhibition of human NCI-H748 cell growth in a cell viability assay.
# 8505C = experiment: cells; format: functional, cell-based; conditions: Homo sapiens
# Description: SANGER: Inhibition of human 8505C cell growth in a cell viability assay.
# HuTu80 = experiment: cells; format: functional, cell-based, Homo sapiens, HUTU-80; conditions: Homo sapiens, HuTu80;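 further: growth inhibition of HuTu80 human cells, determined with a cell viability readout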
# Description: SANGER: Inhibition of human HUTU-80 cell growth in a cell viability assay.
# LCLC-97TM1 = experiment: cells; format: functional, cell-based; conditions: Homo sapiens;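 further: cell viability assay measuring growth inhibition of human LCLC-97TM1 cells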
# Description: SANGER: Inhibition of human LCLC-97TM1 cell growth in a cell viability assay.
# NCI-H1755 = experiment: cells; format: functional, cell-based; conditions: Homo sapiens;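 further: cell viability readout used to measure growth inhibition of NCI-H1755 cells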
# Description: SANGER: Inhibition of human NCI-H1755 cell growth in a cell viability assay.
# JIYOYE = experiment: cells; format: functional, cell-based, Homo sapiens; conditions: Homo sapiens, JIYOYE
# Description: SANGER: Inhibition of human JiyoyeP-2003 cell growth in a cell viability assay.
# EFM-19 = experiment: cells; format: functional, cell-based; conditions: Homo sapiens;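 further: growth inhibition of human EFM-19 cells, measured in a cell viability assay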
# Description: SANGER: Inhibition of human EFM-19 cell growth in a cell viability assay.
# A204 = experiment: cells; format: functional, cell-based; conditions: Homo sapiens;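 further: growth inhibition of human A204 cells, read out with a cell viability assay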
# Description: SANGER: Inhibition of human A204 cell growth in a cell viability assay.
# MFE-280 = experiment: cells; format: functional, cell-based; conditions: Homo sapiens;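 further: growth inhibition of MFE-280 cells, determined with a cell viability readout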
# Description: SANGER: Inhibition of human MFE-280 cell growth in a cell viability assay.
compound,measurement,setting,value
COc1ccc(-c2cc3nccn3c(Nc3ncccc3C(N)=O)n2)cc1OC,IC50,SUP-T1,2.1 µM
same,IC50,HMV-2 cell line,0.664 µM
same,IC50,KYSE-410,7.22 µM
same,IC50,HT-29,2.81 µM
same,IC50,KYSE-70 cell line,> 8 µM
same,IC50,NCI-H2087,2.79 µM
same,IC50,NCI-H2081,> 8 µM
same,IC50,NALM-6,0.417 µM
same,IC50,EFO-21,> 8 µM
same,IC50,CAKI-1,6.1 µM
same,IC50,EW-24,> 8 µM
same,IC50,VM-CUB-1,> 8 µM
same,IC50,S-117,> 8 µM
same,IC50,HSC-4,> 8 µM
same,IC50,D-392MG,> 8 µM
same,IC50,IM-9,> 8 µM
same,IC50,UMC-11,> 8 µM
same,IC50,G-402,6.9 µM
same,IC50,MC-CAR,1.14 µM
same,IC50,NCCIT,2.36 µM
same,IC50,HuO-3N1,> 8 µM
same,IC50,SCC-25,> 8 µM
same,IC50,HCT-116,3.98 µM
same,IC50,RPMI-6666,1.44 µM
same,IC50,EFO-27,2.06 µM
same,IC50,SNU-387,2.9 µM
same,IC50,NCI-H292,> 8 µM
same,IC50,DoTc2-4510,1.06 µM
same,IC50,NCI-H2196,> 8 µM
same,IC50,HuCCT-1,> 8 µM
same,IC50,CHP-212,6.45 µM
same,IC50,MDA-MB-231,> 8 µM
same,IC50,DMS-273,6.61 µM
same,IC50,GCT,0.799 µM
same,IC50,SW48,7.73 µM
same,IC50,NCI-H2342,1.82 µM
same,IC50,BHT-101,> 8 µM
same,IC50,SW780,> 8 µM
same,IC50,SW1990,> 8 µM
same,IC50,NCI-H2405,> 8 µM
same,IC50,CPC-N,> 8 µM
same,IC50,TUR,2.57 µM
same,IC50,NCI-H2030,6.25 µM
same,IC50,TALL-1,> 8 µM
same,IC50,RD,> 8 µM
same,IC50,T98G,> 8 µM
same,IC50,A-427,4.6 µM
same,IC50,P31-FUJ,> 8 µM
same,IC50,NUGC-3,> 8 µM
same,IC50,COR-L105,1.14 µM
same,IC50,NCI-H748,> 8 µM
same,IC50,8505C,1.77 µM
same,IC50,HuTu80,1.81 µM
same,IC50,LCLC-97TM1,0.57 µM
same,IC50,NCI-H1755,> 8 µM
same,IC50,JIYOYE,1.55 µM
same,IC50,EFM-19,> 8 µM
same,IC50,A204,> 8 µM
same,IC50,MFE-280,> 8 µM
OC[C@H](Cc1ccccc1)Nc1nc(Oc2ccc3c(c2)CCC3)nc2c1ncn2Cc1ccc(-c2ccccc2)cc1,IC50,SUP-T1,4.97 µM
same,IC50,HMV-2 cell line,6.34 µM
same,IC50,KYSE-410,6.97 µM
same,IC50,HT-29,8.45 µM
same,IC50,KYSE-70 cell line,> 10.2 µM
same,IC50,NCI-H2087,> 10.2 µM
same,IC50,NCI-H2081,> 10.2 µM
same,IC50,NALM-6,3.51 µM
same,IC50,EFO-21,> 10.2 µM
same,IC50,CAKI-1,> 10.2 µM
same,IC50,EW-24,> 10.2 µM
same,IC50,VM-CUB-1,> 10.2 µM
same,IC50,S-117,4.88 µM
same,IC50,HSC-4,> 10.2 µM
same,IC50,D-392MG,> 10.2 µM
same,IC50,IM-9,> 10.2 µM
same,IC50,UMC-11,> 10.2 µM
same,IC50,G-402,> 10.2 µM
same,IC50,MC-CAR,> 10.2 µM
same,IC50,NCCIT,> 10.2 µM
same,IC50,HuO-3N1,> 10.2 µM
same,IC50,SCC-25,> 10.2 µM
same,IC50,HCT-116,> 10.2 µM
same,IC50,RPMI-6666,> 10.2 µM
same,IC50,EFO-27,> 10.2 µM
same,IC50,SNU-387,> 10.2 µM
same,IC50,NCI-H292,> 10.2 µM
same,IC50,DoTc2-4510,> 10.2 µM
same,IC50,NCI-H2196,> 10.2 µM
same,IC50,HuCCT-1,> 10.2 µM
same,IC50,CHP-212,> 10.2 µM
same,IC50,MDA-MB-231,> 10.2 µM
same,IC50,DMS-273,> 10.2 µM
same,IC50,GCT,> 10.2 µM
same,IC50,SW48,> 10.2 µM
same,IC50,NCI-H2342,3.72 µM
same,IC50,BHT-101,> 10.2 µM
same,IC50,SW780,> 10.2 µM
same,IC50,SW1990,> 10.2 µM
same,IC50,NCI-H2405,> 10.2 µM
same,IC50,CPC-N,> 10.2 µM
same,IC50,TUR,> 10.2 µM
same,IC50,NCI-H2030,5.25 µM
same,IC50,TALL-1,> 10.2 µM
same,IC50,RD,> 10.2 µM
same,IC50,T98G,> 10.2 µM
same,IC50,A-427,> 10.2 µM
same,IC50,P31-FUJ,> 10.2 µM
same,IC50,NUGC-3,> 10.2 µM
same,IC50,COR-L105,> 10.2 µM
same,IC50,NCI-H748,> 10.2 µM
same,IC50,8505C,4.57 µM
same,IC50,HuTu80,1.31 µM
same,IC50,LCLC-97TM1,6.43 µM
same,IC50,NCI-H1755,> 10.2 µM
same,IC50,JIYOYE,> 10.2 µM
same,IC50,EFM-19,> 10.2 µM
same,IC50,A204,> 10.2 µM
same,IC50,MFE-280,> 10.2 µM
